Laboratory results as given in ChEMBL document CHEMBL1201862, “PubChem BioAssay data set” (2004).
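Method: 48-hour compound exposure of cells in 96-well plates, five concentrations, linear interpolation of endpoints. GI50 marks 50% less growth.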 Calls of active or inactive are those of the source. Cut-off read from the data, not from the text of the source: active = GI50 up to about 1.1 µM and inactive = higher.

Legend:
Test in all cases: NCI anticancer screen, dose series, 48 h
Malme-3M = test system: Malme-3M
RPMI-8226 = test system: RPMI-8226
SF-268 = test system: SF-268
HOP-92 = test system: HOP-92
NCI-H522 = test system: NCI-H522
SR = test system: SR
Hs-578T = test system: Hs-578T
NCI-H226 = test system: NCI-H226
OVCAR-8 = test system: OVCAR-8
MDA-N = test system: MDA-N
KM12 = test system: KM12
COLO 205 = test system: COLO 205
UACC-62 = test system: UACC-62
CAKI-1 = test system: CAKI-1
SK-OV-3 = test system: SK-OV-3
HCT-116 = test system: HCT-116
SN12C = test system: SN12C
A498 = test system: A498
TK-10 = test system: TK-10
786-0 = test system: 786-0
SW-620 = test system: SW-620
IGROV-1 = test system: IGROV-1
K562 = test system: K562
PC-3 = test system: PC-3
M14 = test system: M14
SK-MEL-2 = test system: SK-MEL-2
SF-539 = test system: SF-539
HCC 2998 = test system: HCC 2998
SK-MEL-5 = test system: SK-MEL-5
MCF7 = test system: MCF7
OVCAR-4 = test system: OVCAR-4
LOX IMVI = test system: LOX IMVI
UACC-257 = test system: UACC-257
OVCAR-5 = test system: OVCAR-5
EKVX = test system: EKVX
DU-145 = test system: DU-145
RXF 393 = test system: RXF 393
SK-MEL-28 = test system: SK-MEL-28
CCRF-CEM = test system: CCRF-CEM
ACHN = test system: ACHN
SNB-75 = test system: SNB-75
HCT-15 = test system: HCT-15
T47D = test system: T47D
NCI-H23 = test system: NCI-H23
OVCAR-3 = test system: OVCAR-3
MDA-MB-435 = test system: MDA-MB-435
SF-295 = test system: SF-295
MOLT-4 = test system: MOLT-4
A549 = test system: A549
MDA-MB-231 = test system: MDA-MB-231
BT-549 = test system: BT-549
HL-60 = test system: HL-60
NCI-H460 = test system: NCI-H460
HT-29 = test system: HT-29
NCI/ADR-RES = test system: NCI/ADR-RES
SNB-19 = test system: SNB-19
U-251 = test system: U-251
HOP-62 = test system: HOP-62
UO-31 = test system: UO-31

Measured: GI50

CC1=C/C(=N\NC(N)=S)C(C(O)(C(F)(F)F)C(F)(F)F)C(C)(C)C1 (stereo unspecified)
> 10 µM: HCT-15
inactive: Malme-3M > 10 µM | RPMI-8226 > 10 µM | SF-268 > 10 µM | HOP-92 > 10 µM | NCI-H522 > 10 µM | SR > 10 µM | Hs-578T > 10 µM | NCI-H226 > 10 µM | OVCAR-8 > 10 µM | MDA-N > 10 µM | KM12 > 10 µM | COLO 205 > 10 µM | UACC-62 > 10 µM | CAKI-1 > 10 µM | SK-OV-3 > 10 µM | HCT-116 > 10 µM | SN12C > 10 µM | A498 > 10 µM | TK-10 > 10 µM | 786-0 > 10 µM | SW-620 > 10 µM | IGROV-1 > 10 µM | K562 > 10 µM | PC-3 > 10 µM | M14 > 10 µM | SK-MEL-2 > 10 µM | SF-539 > 10 µM | HCC 2998 > 10 µM | SK-MEL-5 > 10 µM | MCF7 > 10 µM | OVCAR-4 > 10 µM | LOX IMVI > 10 µM | UACC-257 > 10 µM | OVCAR-5 > 10 µM | EKVX > 10 µM | DU-145 > 10 µM | RXF 393 > 10 µM | SK-MEL-28 > 10 µM | CCRF-CEM > 10 µM | ACHN > 10 µM | SNB-75 > 10 µM | T47D > 10 µM | NCI-H23 > 10 µM | OVCAR-3 > 10 µM | MDA-MB-435 > 10 µM | SF-295 > 10 µM | MOLT-4 > 10 µM | A549 > 10 µM | MDA-MB-231 > 10 µM | BT-549 > 10 µM | HL-60 > 10 µM | NCI-H460 > 10 µM | HT-29 > 10 µM | NCI/ADR-RES > 10 µM | SNB-19 > 10 µM | U-251 > 10 µM | HOP-62 > 10 µM

CCc1nnc(S)n1/N=C\c1ccc(-c2ccccc2Cl)o1
inactive: Malme-3M 55.7 µM | RPMI-8226 20.5 µM | SF-268 32.1 µM | HOP-92 33.2 µM | NCI-H522 24.1 µM | SR 19.6 µM | Hs-578T 57 µM | NCI-H226 17.5 µM | OVCAR-8 24.3 µM | MDA-N 20.5 µM | KM12 28.8 µM | COLO 205 31.3 µM | UACC-62 40.6 µM | CAKI-1 45.3 µM | SK-OV-3 56.9 µM | HCT-116 23.8 µM | SN12C 37.2 µM | A498 36.6 µM | TK-10 43.7 µM | 786-0 30.8 µM | SW-620 27.7 µM | IGROV-1 38.7 µM | K562 21.9 µM | PC-3 37.4 µM | M14 33.2 µM | SK-MEL-2 30.8 µM | SF-539 23 µM | HCC 2998 27.3 µM | SK-MEL-5 14.3 µM | MCF7 32 µM | OVCAR-4 39.4 µM | LOX IMVI 23.5 µM | UACC-257 53.5 µM | OVCAR-5 64.6 µM | EKVX 36.4 µM | DU-145 41.3 µM | RXF 393 38.9 µM | CCRF-CEM 27.5 µM | ACHN 60.8 µM | SNB-75 28.2 µM | T47D 25.1 µM | NCI-H23 26.4 µM | OVCAR-3 40.6 µM | MDA-MB-435 21 µM | SF-295 46.2 µM | MOLT-4 17.5 µM | A549 32.6 µM | MDA-MB-231 42.2 µM | BT-549 26.4 µM | HL-60 20.4 µM | NCI-H460 32.4 µM | UO-31 37.7 µM | HT-29 33.4 µM | NCI/ADR-RES 22 µM | SNB-19 45.3 µM | U-251 32.3 µM | HOP-62 90.2 µM
28.2 µM: HCT-15
